Reference: US20230079439A1, “Compositions and Methods for Enhancing Beta Cell Maturation, Health and Function” (THE REGENTS OF THE UNIVERSITY OF CALIFORNIA, priority 2016, published 2023)

How the values were obtained:
[1] = system: isolated mouse islets; assay: GSIS test in isolated mouse islets; format: cell-based; conditions: 24 h; 2.5 or 16.7 mM glucose
Method: Mice (6 in total) were euthanized by cervical dislocation; the mouse torso was saturated with 70% ethanol. The abdominal cavity was opened completely from anus to diaphragm. The body and tail of the pancreas were removed and separated from fat and large vessels. The pancreas was washed once with HBSS solution and cut into small pieces of approximately 2×3 mm with a scissors. After an additional wash with HBSS solution, the pieces of pancreas were placed in two 50 ml Falcon tubes containing 4 ml of a freshly prepared solution of collagenase (2 mg/ml). After vigorous shaking at 37° C. for approximately 20 min, the collagenase digestion was interrupted by adding 45 ml of ice-chilled HBSS solution. The digested pancreatic tissue was spinned down at 330×g for 3 minutes. Supernatant was removed again and an additional 45 mL of “islet media” was added and spinned down at 330×g for 3 minutes. The histopaque was decanted and the tubes were inverted to drain on an absorbent paper towel for 1 min. The pellet was resuspended in 20 ml for each tube in cold 30% Ficoll solution. […]
Frozen islets medium or lysates were thawed on ice and diluted with water (a typical dilution for the lysate was 300× and for the supernatant—5×). […] The signal was determined by a SpectraMax M5 spectrophotometer. The concentrations of insulin in the samples were normalized by the total protein determined by the BCA assay.

[2] = system: INS-1E cells; assay: Glucose-stimulated insulin secretion (GSIS) in INS-1E cells; format: cell-based, rat; conditions: INS-1E cells; 2.5 mM or 16.7 mM glucose
Method: FIG. 3, comprising FIG. 3A through FIG. 3D, depicts the evaluation of the biological activity of HSA-112 in INS-1E cells. FIG. 3A depicts a dose-response analysis of the effect of HSA-112 on the rate of insulin secretion in INS-1E cells. The INS-1E cells were grown and treated with increasing doses of HSA-112 for 24 h, as described in Methods. Subsequently, cells were mixed with different concentrations of HSA-112, as indicated in the graph (red columns), PEG2000 (green columns), and free peptide (blue columns) and were seeded in 12-well plates. After 24 h the cells were taken to a GSIS in the presence of 2.5 mM (weak color bars) or 16.7 mM (strong color bars) glucose. FIG. 3B depicts the time-course analysis of the effect of HSA-112 on the rate of insulin secretion in INS-1E cells. The INS-1E cells were prepared for the experiment as described above with 50 μM of HSA-112, PEG2000, or free peptide. After incubation, as indicated in the graph, the cells were taken to a GSIS as described above. FIG. 3C depicts the cell protective effect of HSA-112 under oxidative stress conditions. Cells were prepared for the experiment as described in Methods. Trolox was used as a positive control at a concentration of 100 μM. The oxidative stress was induced in the tissue culture, as described in Methods. Standard MTT analysis (also described in Methods) was used for evaluating the effect of HSA-112 on cell viability. FIG. 3D depicts INS-1E cell proliferation. Cells were prepared for the experiment as described above. After 24 h the cells were colored by trypan blue and counted as described in Methods *p<0.05, n=6. MEAN±SE.
FIG. 7, comprising FIG. 7A through FIG. 7G, depicts the evaluation of the biological activity of HSA-28P in INS-1E cells. FIG. 7A depicts dose-response analysis of the effect of HSA-28P on the rate of insulin secretion in INS-1E cells. The INS-1E cells were grown and trypsinized as described in Methods. Subsequently, cells were mixed with the indicated concentrations of HSA-28P (red columns), non-relevant peptide nanoparticles (NRPNP, green columns), and naked nanoparticles (NP, blue columns) and were seeded in 12-well plates. After 24 h the cells were taken to a GSIS in the presence of 2.5 mM (weak color bars) or 16.7 mM (strong color bars) glucose. FIG. 7B depicts time-course analysis of the effect of HSA-28P on the rate of insulin secretion in INS-1E cells. The INS-1E cells were prepared for the experiment as described above with 1.34 μM of both HSA-28P or NRPNP, and 0.76 μg/ml of NP. After incubation for the time indicated in the graph, the cells were taken to a GSIS as described in Methods. FIG. 7C depicts the measurement of insulin content. The RIA-assay was performed for INS-1E lysates. FIG. 7D depicts the Effect of HSA-28P on the cells viability under oxidative stress conditions. INS-1E cells were incubated for 24 h with a medium supplemented with HSA-28P (3 μM), or HSA-28P1/2 (1.5 μM), or NPs covered by phantom random peptide (PPNP, 3 μM), or NP (0.76 μg/ml), or HSA-28 (3 μM) and trolox, as a positive antioxidant control (1 mM). After the incubation time, 50 mU/ml of glucose oxidase (GO) was added for an additional 1.15 h. Upon completion of the experiments, a standard MTT assay was conducted as described in Methods. Cell viability is presented as a percentage in comparison to non-treated cells. FIG. 7E depicts the effect of HSA-28P on the cell proliferation rate. Experiments were conducted on INS-1E cells that were seeded in 6-well plates. INS-1E cells were treated as described in Panel D. Cells were detached by trypsin and counted as described in Methods and then were visualized with a Cells Sense Live Imaging microscope. FIG. 7F depicts light microscope images of untreated cells. FIG. 7G depicts light microscope images of cells that were treated with HSA-28P. *p<0.05, n=3. MEAN±SE. […]

[3] = system: INS-1E cells; assay: Cell counting (trypan blue) / proliferation and cluster formation; format: cell-based, rat; conditions: 24 h
Method: FIG. 7, comprising FIG. 7A through FIG. 7G, depicts the evaluation of the biological activity of HSA-28P in INS-1E cells. FIG. 7A depicts dose-response analysis of the effect of HSA-28P on the rate of insulin secretion in INS-1E cells. The INS-1E cells were grown and trypsinized as described in Methods. Subsequently, cells were mixed with the indicated concentrations of HSA-28P (red columns), non-relevant peptide nanoparticles (NRPNP, green columns), and naked nanoparticles (NP, blue columns) and were seeded in 12-well plates. After 24 h the cells were taken to a GSIS in the presence of 2.5 mM (weak color bars) or 16.7 mM (strong color bars) glucose. FIG. 7B depicts time-course analysis of the effect of HSA-28P on the rate of insulin secretion in INS-1E cells. The INS-1E cells were prepared for the experiment as described above with 1.34 μM of both HSA-28P or NRPNP, and 0.76 μg/ml of NP. After incubation for the time indicated in the graph, the cells were taken to a GSIS as described in Methods. FIG. 7C depicts the measurement of insulin content. The RIA-assay was performed for INS-1E lysates. […] INS-1E cells were treated as described in Panel D. Cells were detached by trypsin and counted as described in Methods and then were visualized with a Cells Sense Live Imaging microscope. […]
Cells were detached by trypsin and colored by Trypan blue. Only uncolored cells were counted. […]

[4] = system: INS-1E cells; assay: Insulin secretion of INS-1E cells after 5 h incubation with peptidomimetic agent; format: cell-based, rat; conditions: INS-1 β cells
Method: FIG. 22, comprising FIG. 22A through FIG. 22C, depicts experimental results of incubation of INS1E cells with peptidomimetic agent. A peptidomimetic agent was designed to mimic neuroligin's binding site for neurexin. Monomers and dimers had no effect on insulin secretion. Multiple dimers were conjugated to PEG-2000 to simulate clustering (reagent HSA-112). Dimers were also clustered on nanoparticles (HSA-637). FIG. 22A depicts INS-1E cells were incubated for 5 h with HSA-112 (blue columns) or HSA-637 (purple) at different concentrations or with vehicle alone (black), washed, and then tested for insulin secretion at 3 mM glucose (striped columns) or at 20 mM glucose (solid columns). […] FIG. 22B depicts a time course: insulin secretion was analyzed after the number of hours indicated following a 5 h incubation with 100 μM HSA-112 (blue), 500 nM HSA-637 (purple) or vehicle alone (black). Incubations were with 3 mM glucose (striped columns) or 20 mM glucose (solid columns). FIG. 22C depicts microscopy where INS-1E cells were incubated with HSA-637 conjugated to a fluorescent dye (Cy5, red) and then washed. Membranes were stained with Alexa Fluor 488 (green). For better visualization, microscopy was in hypotonic saline causing the INS-1E cells to swell and become more rounded.

Molecule | effect on GSIS in isolated mouse islets [1] | effect on GSIS [2] | amount of cells / proliferation rate [3] | effect on insulin secretion [4]
N=C(N)NCCC[C@H](N)C(=O)O [L-arginine] | significantly raised GSIS |  |  | 
QQGEFLNYD [HSA-28, short NL-2 mimetic peptide derived from the NL-4/NX-1 crystal complex] |  | did not increase the GSIS | has not shown any effect on the proliferation rate | had no effect
